What was measured:
farm swine = experiment: One-month pre-clinical assessment (QCA, histomorphometry, histology); type: in vivo; conditions: low dose 0.30 μg per mm^2 of stent, 1 month, control 4.0
Source text: A total of 24 stents were implanted in 12 farm swine pigs for 1 month. […] The higher dose was set at the maximum quantity that could be loaded onto the stent.

[1] = system: coronary arteries of farm swine; experiment: Re-endothelialisation of batimastat-loaded BiodivYsio stents (SEM); type: in vivo; conditions: 5 days
Source text: BiodivYsio stents (control, low dose batimastat and high dose batimastat) were implanted into healthy farm swine. After 5 days the animals were sacrificed and the stents studied for endothelialisation using scanning electron microscopy.
The stents were implanted into the coronary arteries of farm swine (2 per animal, each in different arteries). After sacrifice, the vessels were excised and trimmed of all extraneous tissue, washed in buffer, and fixed in 2.5% glutaraldehyde at pH 7.4. Fixation was carried out for a minimum of 24-48 hours in 2.5% glutaraldehyde. The section of artery was rinsed in 0.1M cacodylate buffer pH 7.4. The arteries were shipped in 0.1M cacodylate buffer pH 7. The vessels were required to be left whole, i.e. without longitudinal transection. A small V was marked in the proximal end of the vessel to determine vessel orientation. SEM analysis was carried out on three sections of the stented artery and at 2 different magnifications (high and low). The analysis concentrated on the rate and extent of re-endothelisation of the stent struts and the presence of any cellular/biological debris within the stented segment of artery.

[2] = Pharmacokinetic study, 14C batimastat-loaded BiodivYsio stents in iliac arteries; type: in vivo, New Zealand white rabbit; conditions: rabbit iliac arteries, 28 days post-implantation
Source text: The pharmacokinetic studies were initiated to investigate the deposition of drug from the batimastat-loaded BiodivYsio stent.

Yucatan minipigs = experiment: 3-month pre-clinical evaluation (QCA stenosis); type: in vivo; conditions: 3 months, not statistically significant (p=0.15)
Source text: After 3 months a trend in favour of the treatment groups was found, with an indication of a dose-response relationship shown in FIG. 5. The stenosis was reduced by 20% and 34% in the low and high dose groups respectively compared to the control.

[3] = Batimastat elution from stents in PBS, non flow system; type: physicochemical; conditions: coated stents loaded from methanol, after 1 hour, based on total amount loaded
Method: Elution studies were carried out at 25° C. for up to 1 hour in gently agitated PBS. […] At various time intervals a I ml aliquot was removed and replaced with 1 ml fresh PBS. The stents and water aliquots were measured, see section 1.1.4, to give the amount of drug eluted and the amount of drug remaining on the stents, see section 1.2.1 for results. Samples of eluent from elution studies were injected directly into the system. The sensitivity of the method was 0.010 ppm (0.010 μg/ml).

[4] = Solubility of batimastat in ethanol (100%); type: physicochemical
Source text: This was by preparation of a series of solutions outlined in Table 1

[5] = P is the partition coefficient; cited from earlier work

Row | Structure (SMILES) | Intimal area (farm swine) | Effect on endothelialisation process in-vivo ([1]; high dose 115.3±16.1 μg per 15 mm stent) | Effect on endothelialisation process in-vivo ([1]; low dose 34.2±1.6 μg per 15 mm stent) | Loaded drug eluted from stent [2] | Reduction of stenosis compared to the control (QCA) (Yucatan minipigs; high dose 0.30±0.13 μg per mm^2 of stent) | Reduction of stenosis compared to the control (QCA) (Yucatan minipigs; low dose 0.03±0.01 μg per mm^2 of stent) | Batimastat remaining on the stents [3] | Solubility ([4]; 1.05 mg per ml batimastat in ethanol (100%)) | Solubility ([4]; 1.13 mg per ml batimastat in ethanol (100%)) | Solubility ([4]; 2.6 mg per ml batimastat in ethanol (100%)) | log P [5]
1 | CNC(=O)[C@H](Cc1ccccc1)NC(=O)[C@H](CC(C)C)[C@H](CSc1cccs1)C(=O)NO (relative stereo) [batimastat, (2R-(1(S*),2R*,3S*))—N4-hydroxy-N1-(2-(methylamino)-2-oxo-1-(phenylmethypethyl)-2-(2-methylpropyl)-3-((thienylthio)methyl)butanediamide] | 2.5 | did not affect the endothelialisation process | did not affect the endothelialisation process | ~95% | 34% | 20% | 44% | clear suspension | fine suspension | white suspension | –
2 | C[C@@H]1C[C@H]2[C@@H]3CCC4=CC(=O)C=C[C@]4(C)[C@@]3(F)[C@@H](O)C[C@]2(C)[C@@]1(O)C(=O)CO [dexamethasone] | – | – | – | – | – | – | – | – | – | – | 2.55
